Laboratory results published in US7794995B2, “Purified PKB Ser 473 kinase and uses thereof” (priority 2002, dated 2010).
Entries after “also recorded” stand apart in the source; their conditions may differ.

Columns and labels:
PKB Ser473 kinase [1] = settings: second kinase activity, taken to be the PKB Ser473 kinase; 0-100 microM tested
[2] = tested on: PKB Ser473 phosphorylation; settings: literature: Hill et al. 2001; Alessi et al. 1996; cited from earlier work
PDK1 = target: T1, PDK1 (Homo sapiens, UniProt O15530); settings: literature: Hill et al. 2001; cited from earlier work
T1 sequence (O15530 1-556): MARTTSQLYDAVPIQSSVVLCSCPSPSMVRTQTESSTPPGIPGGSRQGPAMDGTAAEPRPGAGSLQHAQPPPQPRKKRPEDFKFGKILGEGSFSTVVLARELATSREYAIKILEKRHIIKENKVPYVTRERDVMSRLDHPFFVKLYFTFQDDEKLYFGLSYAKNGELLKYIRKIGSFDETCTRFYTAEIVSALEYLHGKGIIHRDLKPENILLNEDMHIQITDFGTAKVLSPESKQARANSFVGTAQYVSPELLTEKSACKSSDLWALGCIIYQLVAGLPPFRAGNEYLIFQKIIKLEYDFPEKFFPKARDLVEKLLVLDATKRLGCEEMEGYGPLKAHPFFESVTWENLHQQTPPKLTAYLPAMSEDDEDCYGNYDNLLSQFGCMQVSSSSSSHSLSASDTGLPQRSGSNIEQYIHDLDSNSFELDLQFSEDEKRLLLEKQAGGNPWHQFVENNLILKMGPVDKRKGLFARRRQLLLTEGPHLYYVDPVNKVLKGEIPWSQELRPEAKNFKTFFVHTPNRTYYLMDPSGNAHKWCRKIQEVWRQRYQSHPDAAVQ

[3] = tested on: PKB phosphorylation on Thr308 and Ser473; experiment: Immunoblotting of plasma membrane fractions for phospho-PKB and total PKB after cell treatment; assay type: cell-based, human; settings: serum-starved HEK293 cells, immunoblot; for PKB phosphorylation on Thr308 and Ser473: 0.1 microM insulin, pervanadate 0.1 mM, 10 mins
Procedure: The presence of PKB in each fraction was determined by immunoblotting with an anti-HA antibody (12CA5). In addition, the phosphorylation status of PKB in each of the fractions was assessed by immunoblotting with phospho-specific PKB antibodies after immunoprecipitation with the HA antibody. Briefly, following SDS-PAGE, proteins were transferred onto Immobilon-P membranes (Millipore). Non-specific signals were blocked by incubating the membrane in TBST buffer (50 mM Tris-HCl, pH 7.4, 150 mM NaCl, 0.1% Tween-20) containing 5% skim milk for 1 hour at room temperature. Incubation with antibodies was performed in TBST for phospho-specific antibodies, TBST containing 1% skim milk for polyclonal antibodies and TBST containing 5% skim milk for monoclonal antibodies, at 4° C. overnight. Antibodies specific for PKB phosphorylated on Thr308 are commercially available (Cell Signalling Technologies). Antibodies specific for PKB phosphorylated on Ser473 was produced and purified as previously described (Hill and Hemmings, 2002, Methods Enzymol 345: 448-463). Pan-PKB antibody has been previously described (Jones et al., 1991, Proc Natl Acad Sci USA 88: 4171-4175).
Next, it was examined if membrane-associated Ser473 kinase activity was dependent on PI3-kinase signalling. Serum-starved HEK293 cells were treated with 0.1 microM insulin, the insulin mimetic pervanadate (0.1 mM, 10 mins.), the PI 3-kinase inhibitor LY294002 (50 microM, 30 mins.), or left untreated. PM fractions were assayed for Ser473 kinase activity, and also analyzed by immunoblotting for phospho-PKB and total PKB.

PKB Ser473 kinase [4] = experiment: Ser473 kinase activity (FSY/FAY peptide assay) in subcellular fractions of treated serum-starved HEK293 cells; assay type: cell-based, human; settings: 0.1 microM insulin, pervanadate 0.1 mM, 10 mins, LY294002 50 microM, 30 mins, versus basal
Procedure: HEK 293 cells transiently transfected with the PKB constructs were serum starved, stimulated or not with 0.1 mM pervanadate for 10 min at 37° C., and subcellular fractions were generated. Briefly, HEK 293 cells were washed once in ice-cold phosphate-buffered saline, and scraped in ice-cold fractionation buffer containing 20 mM HEPES-NaOH, pH 7.4, 250 mM sucrose, phosphatase inhibitors (10 mM sodium fluoride, 1 mM sodium pyrophosphate, 0.1 mM sodium orthovanadate, 2 μM microcystin LR [Alexis]), and protease inhibitors (1 mM PMSF and 1 mM benzamidine). After homogenization either by 10 passes through a 26-gauge needle, or by using a Kinematica homogenizer (10 strokes on speed 2 followed by 30 strokes on speed 10), subcellular fractions were prepared as previously described (Hill and Hemmings, 2002, Methods Enzymol 345: 448-463). The plasma membrane pellets were resuspended in 50 mM Tris-HCl (pH7.4) containing protease and phosphatase inhibitors as described above. Protein concentration of the subcellular fractions was determined by the Bradford method (Bio-Rad), using bovine serum albumin as standard. […]
Next, it was examined if membrane-associated Ser473 kinase activity was dependent on PI3-kinase signalling. […] PM fractions were assayed for Ser473 kinase activity, and also analyzed by immunoblotting for phospho-PKB and total PKB.

PKBα = experiment: Subcellular fractionation of HEK 293 cells transfected with PKB constructs, anti-HA immunoblotting; assay type: cell-based, human; settings: 0.1 mM pervanadate, 10 min, 37° C., serum-starved transfected HEK 293 cells
Description: In order to characterize and purify the PKB Ser473 kinase, we reasoned that the kinase might be constitutively active at the plasma membrane (PM). To this end, we developed a subcellular fractionation protocol to generate fractions enriched in the PM. To determine the efficacy of the procedure, the fractionation behavior of products of two PKB constructs was examined: hemagglutinin (HA) tagged PKBα (HA-PKBα) and HA-PKBα containing a myristoylation/palmitylation signal (m/p-HA-PKBα).
HEK 293 cells transiently transfected with the PKB constructs were serum starved, stimulated or not with 0.1 mM pervanadate for 10 min at 37° C., and subcellular fractions were generated. […] Protein concentration of the subcellular fractions was determined by the Bradford method (Bio-Rad), using bovine serum albumin as standard. […]
The presence of PKB in each fraction was determined by immunoblotting with an anti-HA antibody (12CA5). In addition, the phosphorylation status of PKB in each of the fractions was assessed by immunoblotting with phospho-specific PKB antibodies after immunoprecipitation with the HA antibody. […]

Row | Compound | Staurosporine concentration up to which the kinase activity is insensitive (PKB Ser473 kinase [1]) | Sensitivity of insulin-stimulated PKB Ser473 phosphorylation to the inhibitor [2] | Effect on PDK1 (PDK1) | PKB phosphorylation on Thr308 and Ser473 [3] | Potency as activator of PKB phosphorylation compared with insulin [3] | Ser473 kinase activity in plasma membrane fractions (PKB Ser473 kinase [4]) | Translocation of membrane-targeted m/p-HA-PKBα (PKBα) | Translocation of wild type HA-PKBα to the plasma membrane fraction (PKBα)
1 | CN[C@@H]1C[C@H]2O[C@@](C)([C@@H]1OC)n1c3ccccc3c3c4c(c5c6ccccc6n2c5c31)C(=O)NC4 [staurosporine] | > 100 µM | staurosporine-insensitive; also recorded: not sensitive | inhibits PDK1 |  |  |  |  | 
2 | pervanadate |  |  |  | induced PKB phosphorylation on both Thr308 and Ser473 | more potent activator of PKB phosphorylation than insulin | neither stimuli increased Ser473 kinase activity above basal levels | no translocation was observed | A portion of PKBα translocated to the PM fraction
3 | insulin |  |  |  | induced PKB phosphorylation on both Thr308 and Ser473 |  | neither stimuli increased Ser473 kinase activity above basal levels |  | 
